From ChEMBL document CHEMBL5252654 (ACS Med Chem Lett, 2023)
One block for each molecule: values may come before it.

How the values were obtained:
HeLa [1] = assay: Cytotoxicity against human HeLa cells assessed as reduction in cell viability after 72 hrs by MTT assay; type: functional, cell-based
[2] = Antiplatelet activity against ADP-induced Wistar rat platelet aggregation assessed as inhibition of platelet aggregation; type: functional, cell-based
Phosphodiesterase 3 = Phosphodiesterase 3 (Homo sapiens, UniProt Q14432+Q13370); assay: Inhibition of human recombinant PDE3 expressed in Escherichia coli
Ribonuclease SLFN12 [3] = target: T1, Ribonuclease SLFN12 (Homo sapiens, UniProt Q8IYM2); assay: Binding affinity to SLFN12 (unknown origin) assessed as dissociation constant
Ribonuclease SLFN12 [4] = target: T1, Ribonuclease SLFN12; assay: Binding affinity to human recombinant SLFN12 expressed as Escherichia coli assessed as dissociation constant
[5] = target: T2, cGMP-inhibited 3',5'-cyclic phosphodiesterase 3A (Homo sapiens, UniProt Q14432); assay: Inhibition of PDE3A (unknown origin)
[6] = target: T3, cGMP-inhibited 3',5'-cyclic phosphodiesterase 3B (Homo sapiens, UniProt Q13370); assay: Inhibition of PDE3B (unknown origin)
[7] = target: T2, cGMP-inhibited 3',5'-cyclic phosphodiesterase 3A; assay: Binding affinity to PDE3A (unknown origin) assessed as dissociation constant
[8] = target: T3, cGMP-inhibited 3',5'-cyclic phosphodiesterase 3B; assay: Binding affinity to human recombinant PDE3B expressed as Escherichia coli assessed as dissociation constant
[9] = Antiplatelet aggregation activity in rhesus monkey platelet rich plasma assessed as reduction in ADP-induced platelet aggregation; type: functional, cell-based; details: Macaca mulatta
[10] = Inhibition of Rhesus monkey blood platelet aggregation at 4 mg/kg, po; type: functional; details: Macaca mulatta
[11] = Inhibition of rhesus monkey blood platelet aggregation at 1 mg/kg, po; type: functional; details: Macaca mulatta
[12] = Antiplatelet aggregation activity in rabbit platelet-rich plasma assessed as reduction in ADP-induced aggregation incubated for 5 mins by aggregometry; type: functional, cell-based; details: Oryctolagus cuniculus
[13] = Antiplatelet activity in rabbit platelet rich plasma assessed as inhibition of antigen-antibody-induced platelet aggregation; type: functional, cell-based; details: Oryctolagus cuniculus
[14] = Antiplatelet activity in rabbit platelet rich plasma assessed as inhibition of collagen-induced platelet aggregation; type: functional, cell-based; details: Oryctolagus cuniculus
[15] = Antiplatelet aggregation activity in Sprague-Dawley rat platelet rich plasma assessed as reduction in collagen-induced platelet aggregation; type: functional, cell-based
[16] = Antiplatelet activity in rabbit platelet rich plasma assessed as inhibition of arachidonic acid-induced platelet aggregation; type: functional, cell-based; details: Oryctolagus cuniculus
[17] = Antiplatelet aggregation activity in human rich plasma assessed as reduction in collagen-induced platelet aggregation; type: functional, cell-based
[18] = Antiplatelet aggregation activity in rabbit platelet rich plasma assessed as reduction in ADP-induced platelet aggregation; type: functional, cell-based; details: Oryctolagus cuniculus
[19] = Antiplatelet activity in rabbit platelet rich plasma assessed as inhibition of thrombin-induced platelet aggregation; type: functional, cell-based; details: Oryctolagus cuniculus
[20] = Half life in Beagle dog at 0.29 to 4.86 mg/kg, po; type: ADME, organism-based, Canis lupus familiaris; details: in vivo, dose 0.29-4.86 mg/kg
[21] = Antiplatelet aggregation activity in dog rich plasma assessed as reduction in ADP-induced platelet aggregation; type: functional, cell-based; details: Canis lupus familiaris
Oryctolagus cuniculus = assay: Antithrombotic activity in New Zealand White biolaser-induced oral dosed rabbit model assessed as reduction in thrombus mass; type: functional
[22] = Antiplatelet aggregation activity in human rich plasma assessed as reduction in ADP-induced platelet aggregation; type: functional, cell-based
HeLa [23] = assay: Antiproliferative activity against human HeLa cells assessed as reduction in cell viability measured after 72 hrs by MTT assay; type: functional, cell-based
[24] = Antiplatelet aggregation activity in rhesus monkey platelet rich plasma assessed as reduction in collagen-induced platelet aggregation; type: functional, cell-based; details: Macaca mulatta
[25] = Antiplatelet aggregation activity in Sprague-Dawley rat platelet rich plasma assessed as reduction in ADP-induced platelet aggregation; type: functional, cell-based
[26] = Half life in Wistar rat at 0.29 to 4.86 mg/kg, po; type: ADME, organism-based; details: in vivo, dose 0.29-4.86 mg/kg
HeLa [27] = assay: Antiproliferative activity against human HeLa cells assessed as reduction in cell growth; type: functional, cell-based
[28] = Antiproliferative activity against human QGY-7701 cells assessed as reduction in cell viability measured after 72 hrs by MTT assay; type: functional, cell-based; details: QGY7701, 72 h

T2 sequence (Q14432 whole entry): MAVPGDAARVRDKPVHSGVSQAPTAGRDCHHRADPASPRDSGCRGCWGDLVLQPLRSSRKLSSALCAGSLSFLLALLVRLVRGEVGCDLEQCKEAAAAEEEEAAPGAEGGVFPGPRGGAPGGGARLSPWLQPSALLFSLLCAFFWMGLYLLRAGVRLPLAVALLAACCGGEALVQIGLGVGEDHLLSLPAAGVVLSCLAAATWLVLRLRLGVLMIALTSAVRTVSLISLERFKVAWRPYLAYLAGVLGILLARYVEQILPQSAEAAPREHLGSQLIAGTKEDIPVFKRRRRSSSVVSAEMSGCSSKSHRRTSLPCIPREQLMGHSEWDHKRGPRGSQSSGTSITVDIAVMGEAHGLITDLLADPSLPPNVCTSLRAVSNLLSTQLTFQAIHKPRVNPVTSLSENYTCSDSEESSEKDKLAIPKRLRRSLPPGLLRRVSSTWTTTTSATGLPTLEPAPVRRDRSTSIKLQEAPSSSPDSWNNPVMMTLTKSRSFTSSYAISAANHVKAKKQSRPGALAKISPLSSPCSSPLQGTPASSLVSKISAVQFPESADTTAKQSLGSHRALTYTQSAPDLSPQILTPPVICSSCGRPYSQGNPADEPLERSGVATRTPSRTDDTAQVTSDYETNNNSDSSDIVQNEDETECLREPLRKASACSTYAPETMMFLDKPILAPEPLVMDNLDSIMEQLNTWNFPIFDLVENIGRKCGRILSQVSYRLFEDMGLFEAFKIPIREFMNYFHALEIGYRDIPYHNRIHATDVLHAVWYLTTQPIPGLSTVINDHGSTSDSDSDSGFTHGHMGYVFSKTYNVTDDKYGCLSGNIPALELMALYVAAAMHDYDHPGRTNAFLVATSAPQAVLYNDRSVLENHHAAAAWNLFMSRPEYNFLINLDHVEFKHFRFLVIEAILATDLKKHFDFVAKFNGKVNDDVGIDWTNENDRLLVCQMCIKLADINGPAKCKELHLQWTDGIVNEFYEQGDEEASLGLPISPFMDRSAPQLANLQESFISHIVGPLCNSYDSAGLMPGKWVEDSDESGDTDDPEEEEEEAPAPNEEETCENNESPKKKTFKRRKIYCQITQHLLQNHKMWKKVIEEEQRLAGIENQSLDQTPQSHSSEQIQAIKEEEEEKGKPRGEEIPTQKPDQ
T1 sequence (Q8IYM2 whole entry): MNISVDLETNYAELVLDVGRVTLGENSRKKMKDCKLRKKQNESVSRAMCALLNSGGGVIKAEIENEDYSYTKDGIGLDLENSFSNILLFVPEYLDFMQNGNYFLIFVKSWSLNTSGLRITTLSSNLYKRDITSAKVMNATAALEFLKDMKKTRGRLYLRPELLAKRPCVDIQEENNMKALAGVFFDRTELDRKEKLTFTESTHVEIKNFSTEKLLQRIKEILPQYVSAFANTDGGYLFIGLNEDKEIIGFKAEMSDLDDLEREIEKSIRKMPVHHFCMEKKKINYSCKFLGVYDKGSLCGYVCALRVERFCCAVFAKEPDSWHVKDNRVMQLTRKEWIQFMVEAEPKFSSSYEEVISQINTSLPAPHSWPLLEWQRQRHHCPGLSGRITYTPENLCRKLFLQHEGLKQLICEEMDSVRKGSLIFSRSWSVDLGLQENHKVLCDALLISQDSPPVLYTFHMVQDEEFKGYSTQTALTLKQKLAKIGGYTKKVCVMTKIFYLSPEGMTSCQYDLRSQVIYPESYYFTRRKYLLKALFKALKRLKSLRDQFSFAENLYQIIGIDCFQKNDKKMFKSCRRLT
T3 sequence (Q13370 whole entry): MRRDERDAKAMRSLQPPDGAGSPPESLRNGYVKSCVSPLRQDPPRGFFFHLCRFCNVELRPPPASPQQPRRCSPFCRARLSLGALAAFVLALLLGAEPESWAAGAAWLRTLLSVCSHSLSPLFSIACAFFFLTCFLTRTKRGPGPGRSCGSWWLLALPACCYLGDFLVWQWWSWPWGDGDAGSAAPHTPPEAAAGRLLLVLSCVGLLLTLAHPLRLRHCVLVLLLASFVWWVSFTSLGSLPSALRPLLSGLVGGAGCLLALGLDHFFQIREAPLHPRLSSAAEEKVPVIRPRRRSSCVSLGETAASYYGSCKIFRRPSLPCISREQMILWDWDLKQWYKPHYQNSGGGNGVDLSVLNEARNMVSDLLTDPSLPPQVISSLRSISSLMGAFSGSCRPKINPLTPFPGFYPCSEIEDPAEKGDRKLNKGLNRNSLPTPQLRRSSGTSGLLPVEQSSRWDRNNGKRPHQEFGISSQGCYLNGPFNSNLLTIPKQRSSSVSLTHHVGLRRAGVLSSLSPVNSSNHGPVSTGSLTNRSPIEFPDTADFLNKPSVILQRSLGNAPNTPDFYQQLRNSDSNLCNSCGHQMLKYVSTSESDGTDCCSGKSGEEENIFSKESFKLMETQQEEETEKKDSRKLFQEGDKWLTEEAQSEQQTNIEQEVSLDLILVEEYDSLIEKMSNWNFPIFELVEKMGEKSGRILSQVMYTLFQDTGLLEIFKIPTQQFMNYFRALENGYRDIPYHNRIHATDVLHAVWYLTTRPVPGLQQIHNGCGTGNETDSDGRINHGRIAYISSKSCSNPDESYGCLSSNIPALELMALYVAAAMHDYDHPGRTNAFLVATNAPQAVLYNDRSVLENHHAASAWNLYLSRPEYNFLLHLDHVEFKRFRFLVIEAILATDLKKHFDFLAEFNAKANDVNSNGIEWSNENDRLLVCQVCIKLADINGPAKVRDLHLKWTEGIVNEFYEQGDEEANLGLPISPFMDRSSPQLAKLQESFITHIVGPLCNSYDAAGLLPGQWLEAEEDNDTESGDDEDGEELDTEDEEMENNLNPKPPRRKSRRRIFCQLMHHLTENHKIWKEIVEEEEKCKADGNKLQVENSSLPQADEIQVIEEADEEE

SMILES: O=C1CN2Cc3c(cc(Cl)c(-c4ccccc4)c3Cl)N=C2N1
EC50 (HeLa [1]): 0.00114 µM

SMILES: O=C1CN2Cc3c(ccc(Br)c3Cl)N=C2N1
EC50 (HeLa [1]): 0.00253 µM

EC50 [2]: 0.048 µM | IC50 (Phosphodiesterase 3): 0.032 µM
SMILES: O=C1NC2=Nc3ccc(Cl)c(Cl)c3CN2C1O (stereo unspecified)

SMILES: Cc1cccc(-c2ccc3c(c2Cl)CN2CC(=O)NC2=N3)c1
EC50 (HeLa [1]): 0.00137 µM

IC50 (Phosphodiesterase 3): 0.58 µM
SMILES: C[C@@H]1C(=O)NC2=Nc3cccc(Cl)c3CN21 [QUAZINONE]

SMILES: O=C1CN2Cc3c(ccc(-c4ccoc4)c3Cl)N=C2N1
EC50 (HeLa [1]): 0.0006 µM

IC50 (Phosphodiesterase 3): 0.2 µM
SMILES: O=C1CCc2cc(OCCCCc3nnnn3C3CCCCC3)ccc2N1 [CILOSTAZOL]

SMILES: O=C1CN2Cc3c(ccc(-c4ccc(Cl)cc4)c3Cl)N=C2N1
EC50 (HeLa [1]): 0.0018 µM

SMILES: O=C1CN2Cc3c(ccc(F)c3Cl)N=C2N1
EC50 (HeLa [1]): 0.0342 µM

SMILES: O=C1CN2Cc3c(Cl)cccc3N=C2N1
EC50 (HeLa [1]): 0.0429 µM

SMILES: N#Cc1ccc(-c2ccc3c(c2Cl)CN2CC(=O)NC2=N3)cc1
EC50 (HeLa [1]): 0.00238 µM

SMILES: O=C1CN2Cc3c(ccc(-c4ccncc4)c3Cl)N=C2N1
EC50 (HeLa [1]): 0.00622 µM

SMILES: O=C1CN2Cc3c(ccc(-c4ccccc4)c3Cl)N=C2N1
EC50 (HeLa [1]): 0.00056 µM

Kd (Ribonuclease SLFN12 [3]): 0.87 µM | Kd (Ribonuclease SLFN12 [4]): 0.065 µM | IC50 [5]: 0.025 µM | IC50 [6]: 0.1 µM | Kd [7]: 0.04 µM | Kd [8]: 0.32 µM
SMILES: CCN(CC)c1ccc(C2=NNC(=O)C[C@H]2C)cc1[N+](=O)[O-]

SMILES: Cc1ccc(-c2ccc3c(c2Cl)CN2CC(=O)NC2=N3)cc1
EC50 (HeLa [1]): 0.0003 µM

SMILES: O=C1CN2Cc3c(ccc(-c4ccc(O)cc4)c3Cl)N=C2N1
EC50 (HeLa [1]): 0.0123 µM

SMILES: Cc1ccccc1-c1ccc2c(c1Cl)CN1CC(=O)NC1=N2
EC50 (HeLa [1]): 0.00109 µM

EC50 [9]: 0.5 µM | EC50 [12]: < 1 mg/L | EC50 [13]: 0.74 µM | EC50 [14]: 0.31 µM | EC50 [15]: 0.15 µM | EC50 [16]: 0.39 µM | EC50 [17]: 0.08 µM | EC50 [18]: 1.2 µM | EC50 [19]: 0.7 µM | half-life [20]: 19 h | EC50 [21]: 0.31 µM | EC50 [2]: 0.027 µM | EC50 [22]: 0.4 µM | EC50 (HeLa [23]): 0.00512 µM | EC50 [24]: 0.08 µM | EC50 [25]: 0.27 µM | half-life [26]: 7 h | EC50 (HeLa [27]): 0.004 µM
SMILES: O=C1CN2Cc3c(ccc(Cl)c3Cl)N=C2N1 [ANAGRELIDE]
inhibition in vivo at 4 mg/kg [10]: 47% | inhibition in vivo at 1 mg/kg [11]: 24% | ED50 (Oryctolagus cuniculus): 2.5 mg/kg | EC50 (HeLa [1]): 0.00667 µM

SMILES: COc1cc(-c2ccc(=O)[nH]n2)ccc1OC(F)F [ZARDAVERINE]
EC50 [28]: 0.0568 µM

IC50 (Phosphodiesterase 3): 0.09 µM
SMILES: CC1CC(=O)NN=C1c1ccc2c(c1)CCC(=O)N2C (stereo unspecified)

SMILES: CCc1ccc(-c2ccc3c(c2Cl)CN2CC(=O)NC2=N3)cc1
EC50 (HeLa [1]): 0.0018 µM

SMILES: O=C1CN2Cc3c(ccc(-c4ccsc4)c3Cl)N=C2N1
EC50 (HeLa [1]): 0.00177 µM

SMILES: C[C@@H]1OC(=O)NN=C1c1ccc(-c2ccc(F)cc2)c(C(F)(F)F)c1
EC50 (HeLa [1]): 0.0013 µM

SMILES: C[C@]12CC[C@@H]3c4ccc(O)cc4CC[C@H]3[C@@H]1CC[C@@H]2O [ESTRADIOL]
EC50 (HeLa [1]): 0.0007 µM
